Molecules are shown by their SMILES. Where a name gives a salt, the structure may show the parent alone. Read-outs that look alike come from different tables or passages of the source.

In patent US10125098B2, “Therapeutic compounds and methods of use thereof” (GENENTECH, INC., priority 2014, dated 2018) one finds IC50 data, which are given here for 19 molecules.

One data set addresses T1, hNav1.7 (Homo sapiens, UniProt Q15858).
T1 construct: expressed in transfected cells
As to the kind of experiment: Tritiated compound binding (LBA) to membranes from cells expressing hNav1.7 and the β1 subunit, competitive binding. To be noted: competitive binding vs 100 pM [3H]compound, 18 h, room temperature, membranes with hNav1.7 and β1 subunit. The procedure, abridged: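 Membranes from cells expressing hNav1.7 with β1 were incubated 18 h at room temperature with 100 pM tritiated formula (I) compound and increasing test compound, in 100 mM NaCl, 20 mM Tris HCl pH 7.4, 0.01% BSA.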

The next data set has as its target T2, human NaV1.7 (Homo sapiens, UniProt Q15858).
T2 construct: permanently transfected with an expression vector containing the full-length cDNA coding for the desired human sodium channel α-subunit; expressed in transfected cells; host or cells: HEK-293
As to the kind of experiment: Patch voltage clamp electrophysiology assay (EP), NaV1.7. The class given is cell-based. As to conditions: HEK-293 cells stably expressing NaV1.7 with β1 subunit; whole-cell patch clamp, membrane potential −60 mV (inactivated state). The procedure, abridged: (§1)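 HEK-293 cells stably expressing human α-subunit with β1; whole-cell patch clamp (PatchXpress or manual), ambient temperature, pH 7.4 external NaCl, CsF internal. Held at −60 mV (full inactivation), stepped to −150 mV for 20 ms, then test pulse; percent current decrease after compound wash-on taken as block.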
In general terms: The patch-clamp technique gives a direct electrical read-out from membranes.

For the next data set, the target named is T3, NaV1.5 (Homo sapiens, UniProt Q14524).
T3 construct: permanently transfected with an expression vector containing the full-length cDNA coding for the desired human sodium channel α-subunit; expressed in transfected cells; host or cells: HEK-293
T3 sequence (Q14524 whole entry): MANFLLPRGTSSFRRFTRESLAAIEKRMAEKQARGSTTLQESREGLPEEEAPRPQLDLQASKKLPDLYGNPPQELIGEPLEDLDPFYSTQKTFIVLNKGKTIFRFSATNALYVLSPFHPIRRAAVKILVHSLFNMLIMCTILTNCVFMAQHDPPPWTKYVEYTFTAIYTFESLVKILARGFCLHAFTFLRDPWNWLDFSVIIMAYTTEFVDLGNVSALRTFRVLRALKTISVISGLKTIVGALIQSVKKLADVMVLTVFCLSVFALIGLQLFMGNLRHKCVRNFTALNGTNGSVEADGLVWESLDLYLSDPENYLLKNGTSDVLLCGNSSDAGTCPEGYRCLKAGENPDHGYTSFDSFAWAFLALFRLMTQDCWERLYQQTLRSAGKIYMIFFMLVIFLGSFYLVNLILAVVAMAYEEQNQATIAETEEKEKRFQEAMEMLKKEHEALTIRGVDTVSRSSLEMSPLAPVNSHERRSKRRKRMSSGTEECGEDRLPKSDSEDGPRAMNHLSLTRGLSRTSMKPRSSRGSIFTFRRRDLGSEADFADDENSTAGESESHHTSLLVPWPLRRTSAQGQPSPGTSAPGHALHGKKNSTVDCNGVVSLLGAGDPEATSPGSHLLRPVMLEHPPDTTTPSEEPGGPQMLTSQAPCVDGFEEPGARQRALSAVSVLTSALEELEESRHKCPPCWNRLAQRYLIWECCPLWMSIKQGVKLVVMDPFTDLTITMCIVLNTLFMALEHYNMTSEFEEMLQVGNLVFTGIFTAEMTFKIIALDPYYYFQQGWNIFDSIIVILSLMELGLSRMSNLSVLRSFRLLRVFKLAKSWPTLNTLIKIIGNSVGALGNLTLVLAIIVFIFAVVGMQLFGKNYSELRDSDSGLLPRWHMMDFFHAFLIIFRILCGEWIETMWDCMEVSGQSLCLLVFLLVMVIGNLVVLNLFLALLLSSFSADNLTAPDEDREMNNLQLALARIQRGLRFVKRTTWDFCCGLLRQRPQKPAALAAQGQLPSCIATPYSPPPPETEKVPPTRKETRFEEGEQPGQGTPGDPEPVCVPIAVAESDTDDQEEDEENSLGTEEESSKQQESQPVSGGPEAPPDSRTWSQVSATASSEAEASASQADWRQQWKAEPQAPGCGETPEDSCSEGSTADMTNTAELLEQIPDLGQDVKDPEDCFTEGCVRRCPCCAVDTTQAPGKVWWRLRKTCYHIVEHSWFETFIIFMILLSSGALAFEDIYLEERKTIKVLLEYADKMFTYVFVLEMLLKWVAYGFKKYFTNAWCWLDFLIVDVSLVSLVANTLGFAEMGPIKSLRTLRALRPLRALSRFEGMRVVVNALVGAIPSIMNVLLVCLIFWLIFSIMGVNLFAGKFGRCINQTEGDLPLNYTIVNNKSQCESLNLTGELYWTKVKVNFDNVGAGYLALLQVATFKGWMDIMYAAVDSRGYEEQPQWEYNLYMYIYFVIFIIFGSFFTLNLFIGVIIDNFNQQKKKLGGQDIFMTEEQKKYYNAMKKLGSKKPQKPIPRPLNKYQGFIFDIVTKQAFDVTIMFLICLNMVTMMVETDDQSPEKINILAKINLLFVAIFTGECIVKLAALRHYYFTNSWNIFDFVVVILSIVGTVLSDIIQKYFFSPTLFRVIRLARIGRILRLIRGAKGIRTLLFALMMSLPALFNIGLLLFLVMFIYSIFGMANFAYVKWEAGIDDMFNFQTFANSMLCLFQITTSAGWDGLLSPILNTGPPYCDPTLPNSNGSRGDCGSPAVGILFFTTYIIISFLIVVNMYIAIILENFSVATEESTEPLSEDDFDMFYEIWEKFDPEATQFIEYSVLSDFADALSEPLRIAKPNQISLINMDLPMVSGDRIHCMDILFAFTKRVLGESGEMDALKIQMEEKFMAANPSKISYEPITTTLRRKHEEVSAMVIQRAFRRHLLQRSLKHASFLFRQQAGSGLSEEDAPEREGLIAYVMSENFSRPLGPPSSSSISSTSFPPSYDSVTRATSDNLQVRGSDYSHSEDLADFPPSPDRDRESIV
As to the kind of experiment: Patch voltage clamp electrophysiology assay (EP), NaV1.5. The class given is cell-based. The procedure, abridged: as §1

The mark [1] stands for this setting: human, HEK-293 cells stably expressing human NaV1.5 with β1 subunit, pH 7.4, HEK-293 cells stably expressing NaV1.5 with β1 subunit, whole-cell patch clamp, membrane potential −60 mV (inactivated state).
The mark [2] stands for this setting: HEK-293 cells stably expressing NaV1.5 with β1 subunit, whole-cell patch clamp, membrane potential −60 mV (inactivated state), read-out: Nav1.5.

T2 sequence (Q15858 1-1977 isoform Q15858-3): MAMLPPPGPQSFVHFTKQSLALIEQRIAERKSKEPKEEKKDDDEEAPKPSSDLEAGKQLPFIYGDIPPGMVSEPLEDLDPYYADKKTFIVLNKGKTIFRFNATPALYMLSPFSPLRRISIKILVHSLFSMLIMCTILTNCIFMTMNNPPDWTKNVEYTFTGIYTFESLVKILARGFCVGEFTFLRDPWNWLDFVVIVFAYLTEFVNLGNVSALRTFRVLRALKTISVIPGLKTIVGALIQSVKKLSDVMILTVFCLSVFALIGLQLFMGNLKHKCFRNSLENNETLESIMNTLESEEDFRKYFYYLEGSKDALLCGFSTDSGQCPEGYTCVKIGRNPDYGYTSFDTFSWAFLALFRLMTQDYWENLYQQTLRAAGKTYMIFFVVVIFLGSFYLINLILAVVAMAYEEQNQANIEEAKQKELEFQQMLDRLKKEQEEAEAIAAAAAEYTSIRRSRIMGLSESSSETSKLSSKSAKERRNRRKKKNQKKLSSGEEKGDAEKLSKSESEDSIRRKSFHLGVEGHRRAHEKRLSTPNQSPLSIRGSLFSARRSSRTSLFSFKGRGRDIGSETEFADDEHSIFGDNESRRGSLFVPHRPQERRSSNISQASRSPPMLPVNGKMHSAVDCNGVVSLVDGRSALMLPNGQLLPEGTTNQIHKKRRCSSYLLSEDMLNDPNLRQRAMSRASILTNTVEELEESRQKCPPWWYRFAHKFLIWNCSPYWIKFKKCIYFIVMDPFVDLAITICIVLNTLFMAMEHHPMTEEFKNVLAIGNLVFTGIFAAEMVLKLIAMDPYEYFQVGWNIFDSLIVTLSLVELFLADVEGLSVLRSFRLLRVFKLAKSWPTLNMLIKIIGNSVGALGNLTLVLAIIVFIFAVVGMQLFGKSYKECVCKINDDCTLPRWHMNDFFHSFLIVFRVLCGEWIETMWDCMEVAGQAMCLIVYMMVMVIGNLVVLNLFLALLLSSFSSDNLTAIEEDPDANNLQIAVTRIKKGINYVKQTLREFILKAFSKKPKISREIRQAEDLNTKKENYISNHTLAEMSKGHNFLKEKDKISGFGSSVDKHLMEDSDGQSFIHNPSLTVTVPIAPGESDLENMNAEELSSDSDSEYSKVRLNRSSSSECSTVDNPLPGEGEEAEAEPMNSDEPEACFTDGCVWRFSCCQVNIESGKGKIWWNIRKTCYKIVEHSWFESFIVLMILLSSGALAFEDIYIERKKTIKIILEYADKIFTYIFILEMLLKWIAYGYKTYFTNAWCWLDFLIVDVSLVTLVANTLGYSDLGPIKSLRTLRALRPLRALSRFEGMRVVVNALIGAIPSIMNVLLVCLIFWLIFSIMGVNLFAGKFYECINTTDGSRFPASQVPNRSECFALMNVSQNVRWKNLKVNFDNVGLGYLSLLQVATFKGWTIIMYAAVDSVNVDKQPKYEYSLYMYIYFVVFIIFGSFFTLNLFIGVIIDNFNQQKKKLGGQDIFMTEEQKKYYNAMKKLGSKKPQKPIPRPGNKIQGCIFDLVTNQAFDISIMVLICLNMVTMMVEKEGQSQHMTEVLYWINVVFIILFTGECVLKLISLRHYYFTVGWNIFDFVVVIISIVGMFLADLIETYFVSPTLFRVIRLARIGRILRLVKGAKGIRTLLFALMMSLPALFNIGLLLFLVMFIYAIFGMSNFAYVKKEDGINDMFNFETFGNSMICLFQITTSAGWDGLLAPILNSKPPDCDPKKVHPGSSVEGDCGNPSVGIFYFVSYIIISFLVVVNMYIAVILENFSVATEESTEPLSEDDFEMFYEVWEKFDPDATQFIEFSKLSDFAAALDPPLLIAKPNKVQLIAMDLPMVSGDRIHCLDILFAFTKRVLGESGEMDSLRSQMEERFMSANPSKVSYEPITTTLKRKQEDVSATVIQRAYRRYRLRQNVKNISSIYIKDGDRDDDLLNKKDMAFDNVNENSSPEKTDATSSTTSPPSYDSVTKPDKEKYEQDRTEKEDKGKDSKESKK
T2 sequence (Q07699 19-218 partner): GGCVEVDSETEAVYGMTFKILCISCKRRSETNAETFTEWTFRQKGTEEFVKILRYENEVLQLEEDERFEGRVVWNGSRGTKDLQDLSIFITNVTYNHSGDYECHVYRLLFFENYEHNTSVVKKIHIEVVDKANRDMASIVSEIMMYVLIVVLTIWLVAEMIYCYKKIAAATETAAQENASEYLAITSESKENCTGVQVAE
T1 sequence (Q15858 1-1977 isoform Q15858-3): as the sequence (Q15858 1-1977 isoform Q15858-3) above
T1 sequence (Q07699 19-218 partner): as the sequence (Q07699 19-218 partner) above

With `CC(C)COc1ncc(Oc2cc(F)c(C(=O)N3CCC[C@H]3C(=O)O)cc2Cl)cc1Cl` [Example 97, 5-chloro-4-((5-chloro-6-isobutoxypyridin-3-yl)oxy)-2-fluorobenzoyl)-L-proline trifluoroacetic acid salt], the IC50 is 440 nM at hNav1.7, 570 nM against human NaV1.7 and at least 30000 nM against NaV1.5 (setting [1]).
The matching figures for `CC(C)COc1ncc(Oc2cc(F)c(C(=O)N3CCC[C@H]3C(=O)O)cc2C2CC2)cc1C1CC1` [Example 98, (5-cyclopropyl-4-((5-cyclopropyl-6-isobutoxypyridin-3-yl)oxy)-2-fluorobenzoyl)-L-proline trifluoroacetic acid salt and (4-((5-chloro-6-isobutoxypyridin-3-yl)oxy)-5-cyclopropyl-2-fluorobenzoyl)-L-proline trifluoroacetic acid salt]: 440 nM, 740 nM and at least 30000 nM.
The matching figures for `O=C(O)[C@@H]1CCCN1C(=O)c1cc(C2CC2)c(OCC2(F)CN(Cc3ccc(Cl)cc3C(F)(F)F)C2)cc1F` [Example 99, 1-(4-((1-(4-chloro-2-(trifluoromethyl)benzyl)-3-fluoroazetidin-3-yl)methoxy)-5-cyclopropyl-2-fluorobenzoyl)pyrrolidine-2-carboxylic acid trifluoroacetic acid salt]: 230 nM, 550 nM and at least 30000 nM.
The matching figures for `O=C(O)[C@@H]1C[C@@H](F)CN1C(=O)c1cc(C2CC2)c(OCC2CCN(Cc3cc(C(F)(F)F)cc(Cl)c3F)CC2)cc1F` [Example 101, (2S,4R)-1-(4-((1-(3-chloro-2-fluoro-5-(trifluoromethyl)benzyl)-piperidin-4-yl)methoxy)-5-cyclopropyl-2-fluorobenzoyl)-4-fluoropyrrolidine-2-carboxylic acid]: 66 nM, 520 nM and at least 30000 nM.
Regarding `O=C(O)[C@@H]1C[C@@H](F)CN1C(=O)c1cc(C2CC2)c(OCC2(F)CCN(Cc3cc(C(F)(F)F)cc(Cl)c3F)CC2)cc1F` [Example 102, (2S,4R)-1-(4-((1-(3-chloro-2-fluoro-5-(trifluoromethyl)benzyl)-4-fluoropiperidin-4-yl)methoxy)-5-cyclopropyl-2-fluorobenzoyl)-4-fluoropyrrolidine-2-carboxylic acid], the IC50 at hNav1.7 worked out at 65 nM; against human NaV1.7 it was 330 nM; at NaV1.5 (setting [2]), 23000 nM.
As to `O=C(O)[C@@H]1C[C@@H](F)CN1C(=O)c1cc(C2CC2)c(OCC2CCN(Cc3cc(C(F)(F)F)ccc3F)CC2)cc1F` [Example 103, (2S,4R)-1-(5-cyclopropyl-2-fluoro-4-((1-(2-fluoro-5-(trifluoromethyl)benzyl)-piperidin-4-yl)methoxy)benzoyl)-4-fluoropyrrolidine-2-carboxylic acid], the IC50 was 33 nM on hNav1.7, 340 nM against human NaV1.7 and at least 30000 nM against NaV1.5 (setting [1]).
The matching figures for `O=C(O)[C@@H]1C[C@@H](F)CN1C(=O)c1cc(C2CC2)c(OCC2CCN(Cc3ccc(Cl)c(F)c3)CC2)cc1F` [Example 104, (2S,4R)-1-(4-((1-(4-chloro-3-fluorobenzyl)piperidin-4-yl)methoxy)-5-cyclopropyl-2-fluorobenzoyl)-4-fluoropyrrolidine-2-carboxylic acid]: 130 nM, 1600 nM and at least 30000 nM.
Consider `O=C(O)[C@@H]1C[C@@H](F)CN1C(=O)c1cc(C2CC2)c(OCC2CCN(Cc3cc(Cl)cc(OC(F)(F)F)c3)CC2)cc1F` [Example 105, (2S,4R)-1-(4-((1-(3-chloro-5-(trifluoromethoxy)benzyl)piperidin-4-yl)methoxy)-5-cyclopropyl-2-fluorobenzoyl)-4-fluoropyrrolidine-2-carboxylic acid], for which the IC50 on hNav1.7 was determined as 37 nM; on human NaV1.7 it was 220 nM; on NaV1.5 (setting [2]), 22000 nM.
On to `O=C(O)[C@@H]1C[C@@H](F)CN1C(=O)c1cc(C2CC2)c(OCC2(F)CCN(Cc3cc(C(F)(F)F)ccc3Cl)CC2)cc1F` [Example 106, (2S,4R)-1-(4-((1-(2-chloro-5-(trifluoromethyl)benzyl)-4-fluoropiperidin-4-yl)methoxy)-5-cyclopropyl-2-fluorobenzoyl)-4-fluoropyrrolidine-2-carboxylic acid], for which the IC50 amounted to 27 nM at hNav1.7, 130 nM against human NaV1.7 and 21000 nM at NaV1.5 (setting [2]).
The matching figures for `CC(C)Nc1ccc(F)cc1CN1CCC(COc2cc(F)c(C(=O)N3C[C@H](F)C[C@H]3C(=O)O)cc2C2CC2)CC1` [Example 107, (2S,4R)-1-(5-cyclopropyl-2-fluoro-4-((1-(5-fluoro-2-(isopropylamino)benzyl)-piperidin-4-yl)methoxy)benzoyl)-4-fluoropyrrolidine-2-carboxylic acid]: 39 nM, 730 nM and 12000 nM.
The matching figures for `O=C(O)[C@@H]1C[C@@H](F)CN1C(=O)c1cc(C2CC2)c(OCC2CCN(Cc3cc(F)c(Cl)cc3Cl)CC2)cc1F` [Example 108, (2S,4R)-1-(5-cyclopropyl-4-((1-(2,4-dichloro-5-fluorobenzyl)piperidin-4-yl)methoxy)-2-fluorobenzoyl)-4-fluoropyrrolidine-2-carboxylic acid]: 17 nM, 220 nM and 9600 nM.
As for `CC(C)Oc1ncc(CN2CCC(F)(COc3cc(F)c(C(=O)N4C[C@H](F)C[C@H]4C(=O)O)cc3C3CC3)CC2)cc1Cl` [Example 109, (2S,4R)-1-(4-((1-((5-chloro-6-isopropoxypyridin-3-yl)methyl)-4-fluoropiperidin-4-yl)methoxy)-5-cyclopropyl-2-fluorobenzoyl)-4-fluoropyrrolidine-2-carboxylic acid], the IC50 at hNav1.7 was 51 nM; against human NaV1.7, 890 nM; at NaV1.5 (setting [1]), at least 30000 nM.
For `O=C(NC(C(=O)O)C1CCC1)c1cc(C2CC2)c(OCC2(F)CCN(Cc3cc(C(F)(F)F)ccc3Cl)CC2)cc1F` (stereo not drawn) [Example 110, 2-(4-((1-(2-chloro-5-(trifluoromethyl)benzyl)-4-fluoropiperidin-4-yl)methoxy)-5-cyclopropyl-2-fluorobenzamido)-2-cyclobutyl acetic acid], the results for the IC50 on hNav1.7, at human NaV1.7 and on NaV1.5 (setting [2]) were 370 nM, 10000 nM and 10000 nM, respectively.
As for `C[C@@H]1[C@@H](C(=O)O)N(C(=O)c2cc(C3CC3)c(OCC3(F)CCN(Cc4cc(C(F)(F)F)ccc4Cl)CC3)cc2F)C[C@@H]1F` [Example 111, (2S,3R,4R)-1-(4-((1-(2-chloro-5-(trifluoromethyl)benzyl)-4-fluoropiperidin-4-yl)methoxy)-5-cyclopropyl-2-fluorobenzoyl)-4-fluoro-3-methylpyrrolidine-2-carboxylic acid], the IC50 stood at 36 nM on hNav1.7, 230 nM against human NaV1.7 and 14000 nM on NaV1.5 (setting [2]).
In the case of `O=C(O)[C@@H]1CCCN1C(=O)c1cc(C2CC2)c(OC2CCN(Cc3cc(Cl)cc(Cl)c3)CC2)cc1F` [Example 112, (S)-1-(5-cyclopropyl-4-(1-(3,5-dichlorobenzyl)piperidin-4-yloxy)-2-fluorobenzoyl)pyrrolidine-2-carboxylic acid], the IC50 was 520 nM on hNav1.7, 2000 nM against human NaV1.7 and at least 30000 nM against NaV1.5 (setting [1]).
`O=C(O)[C@@H]1CCCN1C(=O)c1cc(C2CC2)c(CN2CC(Oc3cc(Cl)cc(Cl)c3)C2)cc1F` [Example 122, (5-cyclopropyl-4-((3-(3,5-dichlorophenoxy)azetidin-1-yl)methyl)-2-fluorobenzoyl)-L-proline]: the IC50 at hNav1.7 was 430 nM; against human NaV1.7 it was 2000 nM; against NaV1.5 (setting [1]) it was at least 30000 nM.
On to `O=C(O)[C@@H]1CC2(CC2)CN1C(=O)c1cc(C2CC2)c(OCC2(F)CCN(Cc3ccc(C(F)(F)F)cc3Cl)CC2)cc1F` [Example 124, (S)-5-(4-((1-(2-chloro-4-(trifluoromethyl)benzyl)-4-fluoropiperidin-4-yl)methoxy)-5-cyclopropyl-2-fluorobenzoyl)-5-azaspiro[2.4]heptane-6-carboxylic acid], for which the IC50 at hNav1.7 came to 400 nM; against human NaV1.7, 1500 nM; at NaV1.5, 12000 nM.
As for `O=C(O)[C@@H]1C[C@@H](F)CN1C(=O)c1cc(C2CC2)c(OCC2(F)CCN(Cc3ccc(C(F)(F)F)cc3Cl)CC2)cc1F` [Example 127, (2S, 4R)-1-(4-((1-(2-chloro-4-(trifluoromethyl)benzyl)-4-fluoropiperidin-4-yl)methoxy)-5-cyclopropyl-2-fluorobenzoyl)-4-fluoropyrrolidine-2-carboxylic acid], the IC50 on hNav1.7 stood at 120 nM; against human NaV1.7 it was 400 nM; at NaV1.5 (setting [2]) it was 13000 nM.
`O=C(O)[C@@H]1C[C@@H](F)CN1C(=O)c1cc(C2CC2)c(OCC2(F)CCN(Cc3ccc(F)c(Cl)c3)CC2)cc1F` [Example 128, (2S,4R)-1-(4-((1-(3-chloro-4-fluorobenzyl)-4-fluoropiperidin-4-yl)methoxy)-5-cyclopropyl-2-fluorobenzoyl)-4-fluoropyrrolidine-2-carboxylic acid]: the IC50 at hNav1.7 is 87 nM; against human NaV1.7 it was 710 nM; at NaV1.5 (setting [1]) it was at least 30000 nM.
